This note sets out measurements from ChEMBL document CHEMBL2074010, “Transport function and hepatocellular localization of mrp6 in rat liver” (Mol Pharmacol, 2000).

Sequence of ATP-binding cassette sub-family C member 2 (Q63120 whole entry): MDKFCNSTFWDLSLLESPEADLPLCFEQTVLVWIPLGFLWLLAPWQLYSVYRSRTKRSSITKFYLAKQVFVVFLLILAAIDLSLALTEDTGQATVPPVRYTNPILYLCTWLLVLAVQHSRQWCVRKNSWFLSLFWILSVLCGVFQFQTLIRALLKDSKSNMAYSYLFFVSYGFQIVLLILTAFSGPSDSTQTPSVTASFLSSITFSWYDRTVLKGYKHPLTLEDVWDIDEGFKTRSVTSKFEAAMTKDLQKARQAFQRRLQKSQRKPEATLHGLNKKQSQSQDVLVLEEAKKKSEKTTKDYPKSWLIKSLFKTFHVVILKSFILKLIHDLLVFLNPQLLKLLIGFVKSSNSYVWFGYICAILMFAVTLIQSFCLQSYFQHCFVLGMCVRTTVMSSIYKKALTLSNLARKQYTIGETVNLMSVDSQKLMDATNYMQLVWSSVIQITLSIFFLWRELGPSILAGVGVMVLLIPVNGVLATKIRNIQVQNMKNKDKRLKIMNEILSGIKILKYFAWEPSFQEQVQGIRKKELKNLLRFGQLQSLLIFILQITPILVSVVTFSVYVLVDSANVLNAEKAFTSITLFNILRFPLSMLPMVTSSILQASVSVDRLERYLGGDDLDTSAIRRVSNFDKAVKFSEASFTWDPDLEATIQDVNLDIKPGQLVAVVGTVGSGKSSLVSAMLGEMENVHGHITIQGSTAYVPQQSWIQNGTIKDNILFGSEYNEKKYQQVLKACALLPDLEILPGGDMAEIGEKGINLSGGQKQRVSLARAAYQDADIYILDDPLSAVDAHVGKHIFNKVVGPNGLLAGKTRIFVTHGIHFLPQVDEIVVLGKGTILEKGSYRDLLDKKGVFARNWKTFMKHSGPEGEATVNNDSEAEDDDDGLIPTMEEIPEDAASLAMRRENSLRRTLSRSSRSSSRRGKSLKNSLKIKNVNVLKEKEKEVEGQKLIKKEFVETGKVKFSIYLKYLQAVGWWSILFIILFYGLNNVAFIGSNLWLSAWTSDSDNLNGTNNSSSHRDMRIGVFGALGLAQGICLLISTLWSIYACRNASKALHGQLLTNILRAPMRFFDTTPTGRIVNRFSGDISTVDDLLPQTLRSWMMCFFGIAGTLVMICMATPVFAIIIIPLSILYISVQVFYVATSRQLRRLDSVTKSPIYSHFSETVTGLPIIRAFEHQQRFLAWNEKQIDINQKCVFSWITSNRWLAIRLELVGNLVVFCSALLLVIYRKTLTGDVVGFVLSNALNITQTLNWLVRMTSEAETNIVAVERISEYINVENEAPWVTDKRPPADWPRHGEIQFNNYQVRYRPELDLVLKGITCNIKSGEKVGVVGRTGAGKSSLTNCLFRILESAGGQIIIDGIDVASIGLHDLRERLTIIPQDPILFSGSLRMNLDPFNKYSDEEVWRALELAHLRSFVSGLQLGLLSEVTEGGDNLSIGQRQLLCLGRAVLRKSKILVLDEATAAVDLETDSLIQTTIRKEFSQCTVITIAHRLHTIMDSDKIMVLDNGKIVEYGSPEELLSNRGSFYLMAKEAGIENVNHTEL

This data set has as its target ATP-binding cassette sub-family C member 2 (Rattus norvegicus, UniProt Q63120). Kind of data set: TP_TRANSPORTER: uptake in membrane vesicles from Mrp2-expressing Sf9 cells. The format is functional, cell membranes, Membrane vesicle.
With `CC[C@H](C)[C@H](NC(=O)[C@H](CC(=O)O)NC(=O)[C@H](CC(C)C)NC(=O)[C@H](Cc1cnc[nH]1)NC(=O)[C@@H]1CSSC[C@H](N)C(=O)N[C@@H](CO)C(=O)N[C@H]2CSSC[C@H](NC(=O)[C@H](CCC(=O)O)NC(=O)[C@H](CCCCN)NC(=O)[C@H](CC(=O)O)NC(=O)[C@H](CCSC)NC(=O)[C@H](CC(C)C)NC(=O)[C@H](CO)NC(=O)[C@H](CO)NC2=O)C(=O)N[C@@H](C(C)C)C(=O)N[C@@H](Cc2ccc(O)cc2)C(=O)N[C@@H](Cc2ccccc2)C(=O)N1)C(=O)N[C@H](C(=O)N[C@@H](Cc1c[nH]c2ccccc12)C(=O)O)[C@@H](C)CC` [ENDOTHELIN], the Activity entry is “substrate [+]”.

For `CCCCC/C=C\C\C=C/C=C/C=C/[C@@H](SC[C@@H](NC(=O)CC[C@H](N)C(=O)O)C(=O)NCC(=O)O)[C@@H](O)CCCC(=O)O` [LEUKOTRIEN C4], the Activity entry is “is not a substrate [-]”.

Take `N[C@@H](CCC(=O)N[C@H](CSc1ccc([N+](=O)[O-])cc1[N+](=O)[O-])C(=O)NCC(=O)O)C(=O)O`: the Activity result was “is not a substrate [-]”.

In the case of `C[C@]12CC[C@@H]3c4ccc(O)cc4CC[C@H]3[C@@H]1CC[C@@H]2O[C@@H]1O[C@H](C(=O)O)[C@@H](O)[C@H](O)[C@H]1O` [ESTRADIOL 17B GLUCURONIDE], the Activity result is “is not a substrate [-]”.
